Experimental data from patent publication US9486435B2, “(Het)aryl-p-quinone derivatives for treatment of mitochondrial diseases” (Edison Pharmaceuticals, Inc., priority 2008, dated 2016).

Tests used:
Assay type in all cases: cell-based
[1] = system: human dermal fibroblasts from LHON patients; experiment: Rescue of BSO-stressed fibroblasts from LHON patients; conditions: Fibroblast, LHON fibroblasts GM03858, BSO stress, read-out: protection against LHON, EC50
Method: (§1) An initial screen was performed to identify compounds effective for the amelioration of redox disorders. Test samples, 4 reference compounds (Idebenone, decylubiquinone, Trolox and α-tocopherol acetate), and solvent controls were tested for their ability to rescue FRDA fibroblasts stressed by addition of L-buthionine-(S,R)-sulfoximine (BSO), as described in Jauslin et al., Hum. Mol. Genet. 11(24):3055 (2002), Jauslin et al., FASEB J. 17:1972-4 (2003), and International Patent Application WO 2004/003565. […] This specific BSO-mediated cell death can be prevented by administration of antioxidants or molecules involved in the antioxidant pathway, such as α-tocopherol, selenium, or small molecule glutathione peroxidase mimetics. However, antioxidants differ in their potency, i.e. the concentration at which they are able to rescue BSO-stressed FRDA fibroblasts.
(§2) Test samples were screened according to the following protocol: A culture with FRDA fibroblasts was started from a 1 ml vial with approximately 500,000 cells stored in liquid nitrogen. Cells were propagated in 10 cm cell culture dishes by splitting every third day in a ratio of 1:3 until nine plates were available. Once confluent, fibroblasts were harvested. For 54 micro titer plates (96 well-MTP) a total of 14.3 million cells (passage eight) were re-suspended in 480 ml medium, corresponding to 100 μl medium with 3,000 cells/well. The remaining cells were distributed in 10 cm cell culture plates (500,000 cells/plate) for propagation. The plates were incubated overnight at 37° C. in a atmosphere with 95% humidity and 5% CO2 to allow attachment of the cells to the culture plate.
(§3) MTP medium (243 μl) was added to a well of the microtiter plate. The test compounds were unfrozen, and 7.5 μl of a 5 mM stock solution was dissolved in the well containing 243 μl medium, resulting in a 150 μM master solution. Serial dilutions from the master solution were made. The period between the single dilution steps was kept as short as possible (generally less than 1 second).
(§4) Plates were kept overnight in the cell culture incubator. The next day, 10 μl of a 10 mM BSO solution were added to the wells, resulting in a 1 mM final BSO concentration. Forty-eight hours later, three plates were examined under a phase-contrast microscope to verify that the cells in the 0% control (wells E1-H1) were clearly dead. The medium from all plates was discarded, and the remaining liquid was removed by gently tapping the plate inversed onto a paper towel.
(§5) 100 μl of PBS containing 1.2 μM Calcein AM were then added to each well. The plates were incubated for 50-70 minutes at room temperature. After that time the PBS was discarded, the plate gently tapped on a paper towel and fluorescence (excitation/emission wavelengths of 485 nm and 525 nm, respectively) was read on a Gemini fluorescence reader. Data was imported into Microsoft Excel (EXCEL is a registered trademark of Microsoft Corporation for a spreadsheet program) and used to calculate the EC50 concentration for each compound.
(§6) Compounds of the invention were screened as described in Example A, but substituting FRDA cells with Leber's Hereditary Optic Neuropathy (LHON) cells obtained from the Coriell Cell Repositories (Camden, N.J.; repository number GM03858). The compounds were tested for their ability to rescue human dermal fibroblasts from LHON patients from oxidative stress.

[2] = system: Human dermal fibroblasts from Friedreich's Ataxia patients; experiment: Rescue of BSO-stressed FRDA fibroblasts (Calcein AM viability); conditions: FRDA fibroblasts GM04078, BSO stress, read-out: protection against FRDA, EC50
Method: as §1
MEM (a medium enriched in amino acids and vitamins, catalog no. 1-31F24-I) and Medium 199 (M199, catalog no. 1-21F22-I) with Earle's Balanced Salts, without phenol red, were purchased from Bioconcept. Fetal Calf Serum was obtained from PAA Laboratories. Basic fibroblast growth factor and epidermal growth factor were purchased from PeproTech. Penicillin-streptomycin-glutamine mix, L-buthionine (S,R)-sulfoximine, (+)-α-tocopherol acetate, decylubiquinone, and insulin from bovine pancreas were purchased from Sigma. Trolox (6-hydroxy-2,5,7,8-tetramethylchromane-2-carboxylic acid) was obtained from Fluka. Idebenone was obtained from Chemo Iberica. Calcein AM was purchased from Molecular Probes. Cell culture medium was made by combining 125 ml M 199 EBS, 50 ml Fetal Calf Serum, 100 U/ml penicillin, 100 μg/ml streptomycin, 2 mM glutamine, 10 μg/ml insulin, 10 ng/ml EGF, and 10 ng/ml bFGF; MEM EBS was added to make the volume up to 500 ml. A 10 mM BSO solution was prepared by dissolving 444 mg BSO in 200 ml of medium with subsequent filter-sterilization. During the course of the experiments, this solution was stored at +4° C. The cells were obtained from the Coriell Cell Repositories (Camden, N.J.; repository number GM04078) and grown in 10 cm tissue culture plates. Every third day, they were split at a 1:3 ratio.
The test samples were supplied in 1.5 ml glass vials. The compounds were diluted with DMSO, ethanol or PBS to result in a 5 mM stock solution. Once dissolved, they were stored at −20° C. Reference antioxidants (Idebenone, decylubiquinone, α-tocopherol acetate and trolox) were dissolved in DMSO.
as §2, §3
as §4, with “The medium from all plates was discarded, and the remaining liquid was removed by gently tapping the plate inversed onto a paper towel.” left out

[3] = system: human dermal fibroblasts from Parkinson's disease patients; experiment: Rescue of BSO-stressed fibroblasts from Parkinson's disease patients; conditions: Fibroblast, PD fibroblasts AG20439, BSO stress, read-out: protection against PD, EC50
Method: as §1, §2, §3, §4, §5
as §6, with “Parkinson's Disease (PD)” for “Leber's Hereditary Optic Neuropathy (LHON)”, “AG20439).” for “GM03858).”, “Parkinson's disease” for “LHON”

[4] = system: human dermal fibroblasts from Huntington's patients; experiment: Rescue of BSO-stressed fibroblasts from Huntington's patients; conditions: Fibroblast, Huntington's fibroblasts GM 04281, BSO stress, read-out: protection against Huntington's, EC50
Method: as §1, §2, §3, §4, §5
as §6, with “tested using the screen” for “screened”, “Huntington's” for “Leber's Hereditary Optic Neuropathy (LHON)”, “GM 04281).” for “GM03858).”, “Huntington's” for “LHON”

Measured: EC50

CC1=C(CCC(C)(C)O)C(=O)C(c2ccc(C(F)(F)F)cc2)=C(C)C1=O [Example 1, 2-(3-Hydroxy-3-methylbutyl)-3,5-dimethyl-6-(4-(trifluoromethyl)phenyl)cyclohexa-2,5-diene-1,4-dione]
< 200 nM: all assays above

CC1=C(CCC(C)(C)O)C(=O)C(c2ccc(F)c(F)c2)=C(C)C1=O [Example 5, 2-(3,4-Difluorophenyl)-6-(3-hydroxy-3-methylbutyl)-3,5-dimethylcyclohexa-2,5-diene-1,4-dione]
< 200 nM: all assays above

CC1=C(C)C(=O)C(c2ccc(C(C)(C)C)cc2)=C(CCC(C)(C)O)C1=O [Example 18, 2-(4-tert-Butylphenyl)-3-(3-hydroxy-3-methylbutyl)-5,6-dimethylcyclohexa-2,5-diene-1,4-dione]
< 200 nM: all assays above

CC1=C(C)C(=O)C(c2cccc(C(F)(F)F)c2)=C(CCC(C)(C)O)C1=O [Example 17, 2-(3-Hydroxy-3-methylbutyl)-5,6-dimethyl-3-(3-(trifluoromethyl)phenyl)cyclohexa-2,5-diene-1,4-dione]
< 200 nM: all assays above

CC1=C(C)C(=O)C(c2ccc(Cl)cc2)=C(CCC(C)(C)O)C1=O [Example 15, 2-(4-Chlorophenyl)-3-(3-hydroxy-3-methylbutyl)-5,6-dimethylcyclohexa-2,5-diene-1,4-dione]
< 200 nM: all assays above

CCc1ccc(C2=C(CCC(C)(C)O)C(=O)C(C)=C(C)C2=O)cc1 [Example 16, 2-(4-Ethylphenyl)-3-(3-hydroxy-3-methylbutyl)-5,6-dimethylcyclohexa-2,5-diene-1,4-dione]
< 200 nM: all assays above

CC1=C(CCC(C)(C)O)C(=O)C(c2ccc3ccccc3c2)=C(C)C1=O [Example 4, 2-(3-Hydroxy-3-methylbutyl)-3,5-dimethyl-6-(naphthalen-2-yl)cyclohexa-2,5-diene-1,4-dione]
< 200 nM: all assays above
